From patent publication US20260042754A1, “Substituted Bicyclic Heteroaryl Sulfonamide Derivatives for the Treatment of Cancer” (NODUS ONCOLOGY LIMITED, priority 2022, published 2026) come the findings set out here.

For experiment [1], the target named is human PARG (PARG-NanoLuc fusion in HEK293T cells) (Homo sapiens (Human), UniProt Q86W56). In words: PARG NanoBRET-based cellular target engagement assay. The format is cell-based. The settings on record: HEK293T cells transfected with PARG-NanoLuc, NanoBRET probe 0.89 μM, 2 hours; read-out: PARG TE IC50. The protocol: PARG Nano-luciferase construct: The PARG-NanoLuc® fusion vector was generated by Promega, by inserting the full length human PARG cDNA sequence encoding the 976 amino acid protein (Gene ID: 8505, UniProt: Q86W56) into the pNLF1-C [CMV/Hygro] vector (C-terminal fusions with NanoLuc® enzyme).
Chain of human PARG (PARG-NanoLuc fusion in HEK293T cells) (Q86W56 whole entry, the tested form may be a part): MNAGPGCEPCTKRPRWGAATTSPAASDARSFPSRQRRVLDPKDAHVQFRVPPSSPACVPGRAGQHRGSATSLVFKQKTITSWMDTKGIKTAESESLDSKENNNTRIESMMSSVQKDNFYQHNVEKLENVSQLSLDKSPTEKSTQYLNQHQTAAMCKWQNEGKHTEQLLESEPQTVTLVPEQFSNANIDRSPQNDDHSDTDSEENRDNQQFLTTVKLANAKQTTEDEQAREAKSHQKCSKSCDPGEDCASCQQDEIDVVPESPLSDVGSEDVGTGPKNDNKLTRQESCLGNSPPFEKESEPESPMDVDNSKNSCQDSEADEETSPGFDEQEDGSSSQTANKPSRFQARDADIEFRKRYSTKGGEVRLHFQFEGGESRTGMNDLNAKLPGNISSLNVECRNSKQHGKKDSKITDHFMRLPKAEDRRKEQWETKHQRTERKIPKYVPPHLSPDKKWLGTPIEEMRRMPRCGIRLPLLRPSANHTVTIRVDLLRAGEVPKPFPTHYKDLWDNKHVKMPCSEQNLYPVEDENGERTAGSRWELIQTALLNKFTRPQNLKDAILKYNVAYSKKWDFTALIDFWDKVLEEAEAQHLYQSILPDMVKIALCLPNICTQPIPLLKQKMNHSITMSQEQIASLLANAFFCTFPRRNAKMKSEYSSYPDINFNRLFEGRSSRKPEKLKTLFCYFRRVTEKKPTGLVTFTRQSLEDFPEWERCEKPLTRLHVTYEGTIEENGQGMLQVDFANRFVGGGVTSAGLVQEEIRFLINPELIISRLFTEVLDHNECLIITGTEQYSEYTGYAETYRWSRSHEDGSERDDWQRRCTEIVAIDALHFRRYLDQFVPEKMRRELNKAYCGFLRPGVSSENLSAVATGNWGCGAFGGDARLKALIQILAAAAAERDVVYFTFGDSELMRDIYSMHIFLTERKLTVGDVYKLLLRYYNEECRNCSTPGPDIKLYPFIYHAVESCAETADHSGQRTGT
PARG target engagement tracer synthesis: The NanoBRET tracer for PARG was prepared following a previously reported general tracer synthesis procedure.
PARG Probe Displacement Assay Using NanoBRET: HEK293T (DSMZ #ACC 635) cells transiently transfected with the PARG-NanoLuc fusion construct were resuspended in phenol red-free OptiMEM (Gibco #11058-021) to a concentration of 2.4×10^5 cells/mL. 9 μL per well were then added to a white 384-well low volume microplate (Greiner #784080) and incubated for 24 hours under standard growth conditions.
Then compound was dispensed into each well using an Echo dispenser (BeckmanCoulter) to yield the pre-specified final concentration of the range of concentrations to be tested (typically 8-point serial concentrations ranging from either from 0.01 to 10 μM, or from 0.001 to 1 μM, or from 0.0001 to 0.1 μM), and being volume-corrected with 100% DMSO (0.5% final DMSO concentration in reaction mixtures).
After mixing and an incubation at room temperature for 15 min 1 μl of the NanoBRET probe (at 0.89 μM final concentration) was added to the microplate using a multichannel pipette. The plate was mixed and incubated in a 5% CO2 environment at 37° C. for 2 hours, and then 5 μL per well of a solution consisting of a 1:31.25 dilution of Nano-Glo substrate (Promega) and a 1:500 dilution of NanoLuc extracellular inhibitor (Promega) in phenol red-free OptiMEM was added to each well followed by another mixing step. Filtered luminescence was measured on an EnVision plate reader (PerkinElmer) equipped with a 460 nm filter (donor) and a 645 nm filter (acceptor). BRET ratios were plotted as concentration-response curves fitted to a sigmoidal 4-parameter logistic model to calculate IC50 values (Scigilian Analyze).
For orientation: In BRET a luciferase serves as donor, and the signal depends on an acceptor being close.

Experiment [2] has as its system NCI-H1650. In words: Modified cell proliferation assay (CellTiter-Glo), NCI-H1650. The format is cell-based. Particulars: modified protocol, 384-well, 300 cells per well, 120 h, highest concentration tested 30000 nM, read-out: NCI-H1650 GI50 (high PARG dependency). The protocol: The cell proliferation assay protocol was modified and used for RMUG-S for Examples 12-44, and subsequently used to test Examples 1-44 in the NCI-H1650 cell line.
NCI-H1650 (ATCC, #CRL-5883) or RMUG-S were seeded on day 1 at 300 cells per well in a 384-well plate (Greiner, #781080) that assure assay linearity and optimal signal intensity in 25 μL of RPMI1640 media (Pan Biotech, #P04-22100) containing 10% FCS (Capricorn, #FBS-11A; Lot. CP22-5141) and 1% Glutamine (Pan Biotech, #P04-80100). After incubation for 24 h in humidified chambers at 37° C./5% CO2, compounds/DMSO were dispensed at different concentrations using an Echo 520 (Beckman Coulter). Cells were further incubated for 120 h at 37° C. and 5% CO2. Cells treated with the compound vehicle DMSO were used as negative controls and cells treated with 10 μM Staurosporine (LC Laboratories, #S-9300) served as positive controls.
At day 6 the CellTiter Glo Reagent was prepared according to the instructions of the kit (Promega Inc.): Reagent was mixed 1:1 with cell culture medium. Thereon, mixture and assay plates were equilibrated at room temperature for 20 min. Equal volumes of the reagent-medium-mixture were added to the volume of culture medium present in each well. The plates were mixed at […] for 2 minutes on an orbital shaker (Timix5, Edmund Buehler GmbH). The microplates were then incubated at room temperature for 10 minutes for stabilization of the luminescent signal. Following incubation, the luminescence was recorded on a Victor X5 microplate reader (Perkin Elmer) using a 200 ms integration time. The data was then analyzed with Excel using the XLFIT Plugin (dose response Fit 205) for determination of the concentration necessary for half-maximal inhibition (i.e. the inflection point of the fitted curve).
As quality control the Z′-factor was calculated from 16 positive and negative control values. Only assay results showing a Z′-factor≥0.5 were used for further analysis.
For orientation: In ATP-based viability assays light output follows the ATP content of the culture.

Experiment [3] deals with Recombinant His-tagged human PARG protein (Homo sapiens (Human), UniProt Q86W56). In words: PARG enzymatic assay (TFMU-ADPr fluorescence). The format is biochemical. The settings on record: 1 nM enzyme, 200 μM TFMU-ADPr, read after 30 minutes. The protocol:
Inhibition of PARG enzymatic activity by compounds was determined as follows: Recombinant His-tagged human PARG protein expressed in Sf21 insect cells (Adipogen AG, #40T-0022) was aliquoted and stored at −80° C. until use. The artificial enzyme substrate 4-(trifluoromethyl)umbelliferone (TFMU)-ADPr was prepared essentially as described (Drown B S et al, Cell Chemical Biology 2018) and stored at −20° C. as 10 mM stock solutions in DMSO (dimethyl sulfoxide) until use. For reactions, typical final concentration of the enzyme was 1 nM and of the TFMU-ADPr 200 μM. Reactions were carried out in black 384-well low volume round bottom assay plates (Corning, #4514) in a final volume of 10 μL. To this end, PARG was diluted to 1.67 nM in reaction buffer (50 mM K2HPO4, 50 mM KCl, 10 mM β-mercaptoethanol, pH 7.4) and 6 μL were dispensed per assay well using a multichannel pipette. Then compound was dispensed into each well using an Echo dispenser (BeckmanCoulter) to yield the pre-specified final concentration of the range of concentrations to be tested (typically 8-point serial concentrations ranging from either from 0.01 to 10 μM, or from 0.001 to 1 μM, or from 0.0001 to 0.1 μM), and being volume-corrected with 100% DMSO (0.5% final DMSO concentration in reaction mixtures). Plates were mixed, and after 15 minutes 4 μL TFMU-ADPr was added into each well using a multichannel pipette followed by brief mixing. Fluorescence intensity signals were then measured after 30 minutes on an EnVision microplate reader (PerkinElmer) using 380/10 nm and 535/25 nm filters for the excitation and emission, respectively (gain: 150). The assay window was set using DMSO control (top) and a control containing no PARG enzyme (bottom). Delta values were plotted as concentration-response curves fitted to a sigmoidal 4-parameter logistic model to calculate IC50 values (Scigilian Analyze).

Where two headings read alike, the source gives them in different places.

Chain of Recombinant His-tagged human PARG protein (Q86W56 whole entry): as the sequence (Q86W56 whole entry, the tested form may be a part) above

With `CO/N=c1\[nH]c2c(N3CCN(C(=O)N(C)CC(F)(F)F)[C@H](C)C3)cc(S(=O)(=O)NC3(C)CC3)cc2c(=O)n1Cc1cnn(C)c1` [Example 37, (R,E)-4-(2-(methoxyimino)-3-((1-methyl-1H-pyrazol-4-yl)methyl)-6-(N-(1-methylcyclopropyl)sulfamoyl)-4-oxo-1,2,3,4-tetrahydroquinazolin-8-yl)-N,2-dimethyl-N-(2,2,2-trifluoroethyl)piperazine-1-carboxamide], the IC50 in experiment [1] and in experiment [3] was below 30 nM in each case. Also, the concentration for 50% growth inhibition (GI50) – broadly, the concentration that inhibits growth by half – in experiment [2] (Homo sapiens, NCI-H1650) is below 500 nM.
With `CO/N=c1\[nH]c2c(-c3ccc(C(N)=O)cc3)cc(S(=O)(=O)NC3(C)CC3)cc2c(=O)n1Cc1cnn(C)c1` [Example 15, (E)-4-(2-(methoxyimino)-3-((1-methyl-1H-pyrazol-4-yl)methyl)-6-(N-(1-methylcyclopropyl)sulfamoyl)-4-oxo-1,2,3,4-tetrahydroquinazolin-8-yl)benzamide], the results for the IC50 in experiment [1] and in experiment [3] were 30 to 99 nM and below 30 nM, respectively. Moreover, the GI50 in experiment [2] (Homo sapiens, NCI-H1650) was above 2000 nM.
For `CON=c1[nH]c2ccc(S(=O)(=O)NC3(C#N)CC3)cc2c(=O)n1Cc1cnn(C)c1` [Example 9, N-(1-cyanocyclopropyl)-2-methoxyimino-3-[(1-methylpyrazol-4-yl)methyl]-4-oxo-1H-quinazoline-6-sulfonamide], the half-inhibitory concentration (IC50) – broadly, the concentration that inhibits the measured activity by half – is 30 to 99 nM in experiment [1] and below 30 nM in experiment [3]. Further, in experiment [2] (Homo sapiens, NCI-H1650), the GI50 is above 2000 nM.
With `CO/N=c1\[nH]c2c(-c3cnc(C(=O)N(C)C)[nH]3)cc(S(=O)(=O)NC3(C)CC3)cc2c(=O)n1Cc1cnn(C)c1` [Example 23, (E)-5-(2-(methoxyimino)-3-((1-methyl-1H-pyrazol-4-yl)methyl)-6-(N-(1-methylcyclopropyl)sulfamoyl)-4-oxo-1,2,3,4-tetrahydroquinazolin-8-yl)-N,N-dimethyl-1H-imidazole-2-carboxamide], the IC50 in experiment [1] and in experiment [3] was below 30 nM each time. In addition, in experiment [2] (Homo sapiens, NCI-H1650), the GI50 lay within 500 to 2000 nM.
For the molecule `CO/N=c1\[nH]c2c(-c3ccc(C(C)=O)cc3)cc(S(=O)(=O)NC3(C)CC3)cc2c(=O)n1Cc1cnn(C)c1` [Example 16, (E)-8-(4-acetylphenyl)-2-(methoxyimino)-3-((1-methyl-1H-pyrazol-4-yl)methyl)-N-(1-methylcyclopropyl)-4-oxo-1,2,3,4-tetrahydroquinazoline-6-sulfonamide], the IC50 in experiment [1] and in experiment [3] was below 30 nM in each case. Besides, the GI50 in experiment [2] (Homo sapiens, NCI-H1650) was above 2000 nM.
Consider `CO/N=c1\[nH]c2c(C3=C[C@@H](C)NCC3)cc(S(=O)(=O)NC3(C)CC3)cc2c(=O)n1Cc1cnn(C)c1` [Example 13, (R,E)-2-(methoxyimino)-8-(6-methyl-1,2,3,6-tetrahydropyridin-4-yl)-3-((1-methyl-1H-pyrazol-4-yl)methyl)-N-(1-methylcyclopropyl)-4-oxo-1,2,3,4-tetrahydroquinazoline-6-sulfonamide/(R,E)-2-(methoxyimino)-8-(2-methyl-1,2,3,6-tetrahydropyridin-4-yl)-3-((1-methyl-1H-pyrazol-4-yl)methyl)-N-(1-methylcyclopropyl)-4-oxo-1,2,3,4-tetrahydroquinazoline-6-sulfonamide], for which the IC50 in experiment [1] was 30 to 99 nM; in experiment [3] it was below 30 nM. Also, in experiment [2], the GI50 fell in the range of 500 to 2000 nM.
On to `CO/N=c1\[nH]c2c(N3CCN(C(=O)N4CCC(F)(F)C4)[C@H](C)C3)cc(S(=O)(=O)NC3(C)CC3)cc2c(=O)n1Cc1cnn(C)c1` [Example 36, (R,E)-8-(4-(3,3-difluoropyrrolidine-1-carbonyl)-3-methylpiperazin-1-yl)-2-(methoxyimino)-3-((1-methyl-1H-pyrazol-4-yl)methyl)-N-(1-methylcyclopropyl)-4-oxo-1,2,3,4-tetrahydroquinazoline-6-sulfonamide], for which the IC50 in experiment [1] and in experiment [3] was below 30 nM throughout. For the same molecule, the GI50 in experiment [2] (Homo sapiens, NCI-H1650) is below 500 nM.
On to `CO/N=c1\[nH]c2c(N3CCN(C(=O)C(C)C)[C@H](C)C3)cc(S(=O)(=O)NC3(C)CC3)cc2c(=O)n1Cc1cnn(C)c1` [Example 35, (R,E)-8-(4-isobutyryl-3-methylpiperazin-1-yl)-2-(methoxyimino)-3-((1-methyl-1H-pyrazol-4-yl)methyl)-N-(1-methylcyclopropyl)-4-oxo-1,2,3,4-tetrahydroquinazoline-6-sulfonamide], for which the IC50 in experiment [1] and in experiment [3] was below 30 nM in each case. The concentration for 50% growth inhibition (GI50) in experiment [2] (Homo sapiens, NCI-H1650) is below 500 nM.
On to `CO/N=c1\[nH]c2c(N3CCN(C(=O)CC(F)(F)F)[C@H](C)C3)cc(S(=O)(=O)NC3(C)CC3)cc2c(=O)n1Cc1cnn(C)c1` [Example 31, (R,E)-2-(methoxyimino)-3-((1-methyl-1H-pyrazol-4-yl)methyl)-8-(3-methyl-4-(3,3,3-trifluoropropanoyl)piperazin-1-yl)-N-(1-methylcyclopropyl)-4-oxo-1,2,3,4-tetrahydroquinazoline-6-sulfonamide], for which the IC50 in experiment [1] and in experiment [3] was below 30 nM throughout. Further, the GI50 in experiment [2] (Homo sapiens, NCI-H1650) is below 500 nM.
Consider `CO/N=c1\[nH]c2c(N3CCN(C(=O)C4(C#N)CC4)[C@H](C)C3)cc(S(=O)(=O)NC3(C)CC3)cc2c(=O)n1Cc1cnn(C)c1` [Example 33, (R,E)-8-(4-(1-cyanocyclopropane-1-carbonyl)-3-methylpiperazin-1-yl)-2-(methoxyimino)-3-((1-methyl-1H-pyrazol-4-yl)methyl)-N-(1-methylcyclopropyl)-4-oxo-1,2,3,4-tetrahydroquinazoline-6-sulfonamide], for which the IC50 in experiment [1] and in experiment [3] was below 30 nM throughout. For the same molecule, in experiment [2] (Homo sapiens, NCI-H1650), the GI50 was below 500 nM.
